Measurements as given in patent US20100093642A1, “NOVEL POLYPEPTIDES” (priority 2006, published 2010).
Converted amounts (≈) assume the structure as drawn. Like-named read-outs stand apart in the source and are kept apart here. Residues, ends and D or L forms follow the SMILES beside them. No end group written: not given here.

How the values were obtained:
Pseudomonas aeruginosa = type: cell-based
Outline: (§1)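 Peptide fractions were incubated with actively growing bacteria in Mueller Hinton medium at a starting concentration of 3×10^4 cells per ml. Growth was monitored continuously in a Bioscreen C reader; polymyxin B served as reference.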

E. coli (ATCC 25922) = type: cell-based, Escherichia coli
Outline: as §1

[1] = system: Citrobacter freundii, K15-75; type: cell-based; conditions: clinical isolate; 37° C.; 3×10^6 cells per ml
Description: (§2) The antibacterial activities of the different peptides were determined by continuous monitoring of bacterial growth with a Bioscreen C microbiology reader (Labsystems Oy, Helsinki, Finland). The test was performed in 100-well flat-bottomed honeycomb plates, in which 50 μl of test fractions were incubated with 50 μl of a suspension of an actively growing culture of bacteria diluted in Mueller Hinton medium to a starting concentration of 3×10^4 cells per ml. The Gram-negative bacteria, Listonella (Vibrio) anguillarum, serotype O2 (FT 1801, a fish pathogenic strain), Pseudomonas aeruginosa and E. coli (ATCC 25922), and the Gram-positive bacteria, C. glutamicum (ATCC 13032) and S. aureus (ATCC 9144), were chosen as test bacteria. The growth chamber was maintained at either 20 or 37° C. during the incubation period. The absorbance was measured at 2 h intervals for 48 h by a turbidometric method with vertical light photometry and a wide band filter (420-580 nm), which is more insensitive to color change in the sample compared to single wavelength detection. Antibacterial activity was determined when the optical density (OD) of the growth control (bacteria plus water) reached an absorbance of 0.3-0.4. Fractions were regarded as active when the OD was less than 50% of the growth control. Polymyxin B (Sigma, St. Louis, Mo., USA), Lactoferricin B, Cecropin P1 and Hyalophora cecropia Cecropin B were used as reference.
(§3) The antimicrobial molecules were also tested against drug resistant clinical isolates, such as the commonly encountered multi-resistant human pathogen S. aureus (MRSA) K15-64 and the glycopeptide (vancomycin)-resistant Enterococccus faecium (GREF) K9-28. The non-clinical isolates Escherichia coli (ATCC 25922), Pseudomonas aeruginosa (ATCC 27853), Corynebacterium glutamicum (ATCC 13032), and Staphylococcus aureus (ATCC 9144) were also tested for comparison. Serial dilutions of synthetic peptides were made in double distilled water and tested according to the method described above. However, in these experiments the starting concentration of bacteria were 3×10^6 cells per ml and the temperature in the growth chamber was 37° C. Polymyxin B was used as positive control for the Gram-negative bacteria.

Escherichia coli, K15-58 = type: cell-based; conditions: clinical isolate; 37° C.; 3×10^6 cells per ml
Description: as §2, §3

[2] = system: Enterococcus faecium (GREF), K9-28; type: cell-based; conditions: vancomycin-resistant clinical isolate; 37° C.; 3×10^6 cells per ml
Description: as §2, §3

Pseudomonas K15-60 = type: cell-based
Description: as §2, §3

[3] = system: Acinetobacter baumannilii, K15-9; type: cell-based; conditions: clinical isolate; 37° C.; 3×10^6 cells per ml
Description: as §2, §3

[4] = system: Candida albicans (ATCC 10231)
Outline: (§4)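 Broth microdilution in half-strength potato dextrose broth, final 2×10^5 spores per ml, peptides in two-fold dilutions from 50 μM to 0.1 μM final. Incubated in the dark without shaking at 25° C. (37° C. for C. albicans) for 48 h; MIC is lowest concentration giving 50% inhibition of visible growth, scored microscopically.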

Saccharomyces cerevisiae = conditions: 48 h
Outline: as §4

Botrytis cinerea 101 = conditions: 48 h
Outline: as §4

[5] = yeast, more than 50% inhibition of visible growth, 48 h, 37° C.
[6] = yeast, more than 50% inhibition of visible growth

## GWFKKTFHKVSHAVKSGIHAGQRGCSALGF [P17 HC]
Pseudomonas aeruginosa
  Minimal inhibitory concentration, P. aeruginosa: 3.12 µM
E. coli (ATCC 25922)
  Minimal inhibitory concentration, E. coli: 1.56 µM
[1]
  Minimal inhibitory concentration, Citrobacter freundii, K15-75: 0.78 µM
Escherichia coli, K15-58
  Minimal inhibitory concentration, Escherichia coli, K15-58: 1.56 µM
[2]
  Minimal inhibitory concentration, Enterococcus faecium (GREF), K9-28: 0.39 µM
Pseudomonas K15-60
  Minimal inhibitory concentration, Pseudomonas K15-60: 3.12 µM
[3]
  Minimal inhibitory concentration, Acinetobacter baumannilii, K15-9: 3.12 µM
[4]; [5]
  Minimal inhibitory concentration (MIC), Candida albicans: 6.25 µM
Saccharomyces cerevisiae; [6]
  Minimal inhibitory concentration (MIC), Saccharomyces cerevisiae: 6.25 µM
Botrytis cinerea 101
  Minimal inhibitory concentration (MIC), Botrytis cinerea: 50 µM

## CC[C@H](C)[C@H](NC(=O)CNC(=O)[C@H](CO)NC(=O)[C@H](CCCCN)NC(=O)[C@@H](NC(=O)[C@H](C)NC(=O)[C@H](Cc1c[nH]cn1)NC(=O)[C@H](CO)NC(=O)[C@@H](NC(=O)[C@H](CCCCN)NC(=O)[C@H](Cc1c[nH]cn1)NC(=O)[C@H](Cc1ccccc1)NC(=O)[C@@H](NC(=O)[C@H](CCCCN)NC(=O)[C@H](CCCCN)NC(=O)[C@H](Cc1ccccc1)NC(=O)C(Cc1c[nH]c2ccc(Br)cc12)NC(=O)CN)[C@@H](C)O)C(C)C)C(C)C)C(=O)N[C@@H](Cc1c[nH]cn1)C(=O)N[C@@H](C)C(=O)NCC(=O)N[C@@H](CCC(N)=O)C(=O)N[C@@H](CCCNC(=N)N)C(=O)NCC(=O)N[C@@H](CS)C(=O)N[C@@H](CO)C(=O)N[C@@H](C)C(=O)N[C@@H](CC(C)C)C(=O)NCC(=O)N[C@@H](Cc1ccccc1)C(=O)O (some centres unmarked) [P17 HC-Br] (HELM PEPTIDE1{G.[O=C(C(Cc1c[nH]c2ccc(Br)cc12)N[*:1])[*:2]].F.K.K.T.F.H.K.V.S.H.A.V.K.S.G.I.H.A.G.Q.R.G.C.S.A.L.G.F}$$$$V2.0)
Pseudomonas aeruginosa
  Minimal inhibitory concentration, P. aeruginosa: 3.12 µM (≈ 10.4 µg/mL)
E. coli (ATCC 25922)
  Minimal inhibitory concentration, E. coli: 1.56 µM (≈ 5.18 µg/mL)
[1]
  Minimal inhibitory concentration, Citrobacter freundii, K15-75: 1.56 µM (≈ 5.18 µg/mL)
Escherichia coli, K15-58
  Minimal inhibitory concentration, Escherichia coli, K15-58: 3.12 µM (≈ 10.4 µg/mL)
[2]
  Minimal inhibitory concentration, Enterococcus faecium (GREF), K9-28: 0.78 µM (≈ 2.59 µg/mL)
Pseudomonas K15-60
  Minimal inhibitory concentration, Pseudomonas K15-60: 3.12 µM (≈ 10.4 µg/mL)
[3]
  Minimal inhibitory concentration, Acinetobacter baumannilii, K15-9: 1.56 µM (≈ 5.18 µg/mL)
[4]; [5]
  Minimal inhibitory concentration (MIC), Candida albicans: 6.25 µM (≈ 20.8 µg/mL)
Saccharomyces cerevisiae; [6]
  Minimal inhibitory concentration (MIC), Saccharomyces cerevisiae: 6.25 µM (≈ 20.8 µg/mL)
Botrytis cinerea 101
  Minimal inhibitory concentration (MIC), Botrytis cinerea: 25 µM (≈ 83 µg/mL)

## CC[C@H](C)[C@H](NC(=O)CNC(=O)[C@H](CO)NC(=O)[C@H](CCCCN)NC(=O)[C@@H](NC(=O)[C@H](C)NC(=O)[C@H](Cc1c[nH]cn1)NC(=O)[C@H](CO)NC(=O)[C@@H](NC(=O)[C@H](CCCCN)NC(=O)[C@H](Cc1c[nH]cn1)NC(=O)[C@H](Cc1ccccc1)NC(=O)[C@@H](NC(=O)[C@H](CCCCN)NC(=O)[C@H](CCCCN)NC(=O)[C@H](Cc1ccccc1)NC(=O)C(Cc1c[nH]c2ccc(Br)cc12)NC(=O)CN)[C@@H](C)O)C(C)C)C(C)C)C(=O)N[C@@H](Cc1c[nH]cn1)C(=O)N[C@@H](C)C(=O)O (some centres unmarked) [P17 HC-Br (1-20)] (HELM PEPTIDE1{G.[O=C(C(Cc1c[nH]c2ccc(Br)cc12)N[*:1])[*:2]].F.K.K.T.F.H.K.V.S.H.A.V.K.S.G.I.H.A}$$$$V2.0; N-terminus and C-terminus assumed)
Pseudomonas aeruginosa
  Minimal inhibitory concentration, P. aeruginosa: 6.25 µM (≈ 14.7 µg/mL)
E. coli (ATCC 25922)
  Minimal inhibitory concentration, E. coli: 6.25 µM (≈ 14.7 µg/mL)
[4]; ATCC 10231, 48 h
  Minimal inhibitory concentration (MIC), Candida albicans: 6.25 µM (≈ 14.7 µg/mL)
Saccharomyces cerevisiae
  Minimal inhibitory concentration (MIC), Saccharomyces cerevisiae: 12.5 µM (≈ 29.3 µg/mL)
Botrytis cinerea 101
  Minimal inhibitory concentration (MIC), Botrytis cinerea: 50 µM (≈ 117 µg/mL)

## GWFKKTFHKVSHAVKSGIHA [P17 HC (1-20)]
Pseudomonas aeruginosa
  Minimal inhibitory concentration, P. aeruginosa: 6.25 µM
E. coli (ATCC 25922)
  Minimal inhibitory concentration, E. coli: 6.25 µM
[1]
  Minimal inhibitory concentration, Citrobacter freundii, K15-75: 12.5 µM
Escherichia coli, K15-58
  Minimal inhibitory concentration, Escherichia coli, K15-58: 6.25 µM
[2]
  Minimal inhibitory concentration, Enterococcus faecium (GREF), K9-28: 6.25 µM
Pseudomonas K15-60
  Minimal inhibitory concentration, Pseudomonas K15-60: 12.5 µM
[3]
  Minimal inhibitory concentration, Acinetobacter baumannilii, K15-9: 6.25 µM
[4]; ATCC 10231, 48 h
  Minimal inhibitory concentration (MIC), Candida albicans: 6.25 µM
Saccharomyces cerevisiae
  Minimal inhibitory concentration (MIC), Saccharomyces cerevisiae: 12.5 µM
Botrytis cinerea 101
  Minimal inhibitory concentration (MIC), Botrytis cinerea: 100 µM
